Reference: ChEMBL document CHEMBL1201862, “PubChem BioAssay data set” (2004)
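Dose response: 5 concentrations. Exposure: 48 h. Format: 96-well plates. Endpoint: linear interpolation; highest concentration if not reached. GI50 marks 50% less growth.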 Active and inactive are the calls of the source. Cut-off read from the data, not from the text of the source: active = GI50 up to about 1.1 µM and inactive = higher.

Legend:
Assay in all cases: inhibition of tumour cell growth, NCI panel, 48 h
ACHN = system: ACHN
BT-549 = system: BT-549
CAKI-1 = system: CAKI-1
HT-29 = system: HT-29
Malme-3M = system: Malme-3M
NCI-H226 = system: NCI-H226
NCI-H522 = system: NCI-H522
OVCAR-3 = system: OVCAR-3
OVCAR-4 = system: OVCAR-4
OVCAR-8 = system: OVCAR-8
SF-539 = system: SF-539
SK-MEL-28 = system: SK-MEL-28
SK-MEL-5 = system: SK-MEL-5
SK-OV-3 = system: SK-OV-3
SNB-75 = system: SNB-75
U-251 = system: U-251
A498 = system: A498
HOP-92 = system: HOP-92

Measured: GI50

NNC(=O)c1ccccc1Nc1ccccc1C(=O)NN
inactive: ACHN > 100 µM | BT-549 > 100 µM | CAKI-1 > 100 µM | HT-29 > 100 µM | Malme-3M > 100 µM | NCI-H226 > 100 µM | NCI-H522 > 100 µM | OVCAR-3 > 100 µM | OVCAR-4 > 100 µM | OVCAR-8 > 100 µM | SF-539 > 100 µM | SK-MEL-28 > 100 µM | SK-MEL-5 > 100 µM | SK-OV-3 > 100 µM | SNB-75 > 100 µM | U-251 > 100 µM

CCN(CC)c1ccc(C2Nc3ccc4ccccc4c3C3=C2C(=O)CCC3)cc1 (configuration not stated)
inactive: A498 45.4 µM | ACHN 12.2 µM | BT-549 60.8 µM | CAKI-1 33.7 µM | HT-29 55.7 µM | Malme-3M > 100 µM | NCI-H226 35.8 µM | OVCAR-3 16.4 µM | OVCAR-4 14.9 µM | OVCAR-8 14.7 µM | SF-539 13.1 µM | SK-MEL-28 > 100 µM | SK-OV-3 38.4 µM | SNB-75 17.3 µM | U-251 14.9 µM

CC/C(=C/OC)P1(=O)OC(C)(C)CN1C(C)(C)C (configuration not stated)
inactive: A498 > 100 µM | ACHN > 100 µM | BT-549 > 100 µM | CAKI-1 > 100 µM | HT-29 > 100 µM | Malme-3M > 100 µM | NCI-H226 > 100 µM | OVCAR-3 > 100 µM | OVCAR-4 > 100 µM | OVCAR-8 > 100 µM | SF-539 > 100 µM | SK-MEL-5 > 100 µM | SK-OV-3 > 100 µM | U-251 > 100 µM

CCN(CC)CC1CN=C(N)O1 (configuration not stated)
inactive: A498 > 100 µM | ACHN > 100 µM | BT-549 > 100 µM | CAKI-1 > 100 µM | HOP-92 > 100 µM | NCI-H226 > 100 µM | OVCAR-3 > 100 µM | OVCAR-4 > 100 µM | OVCAR-8 > 100 µM | SF-539 > 100 µM | SK-MEL-28 > 100 µM | SK-MEL-5 > 100 µM | SNB-75 > 100 µM | U-251 > 100 µM

CCOC(=O)C1(Cc2ccccc2)Cc2cc3c(cc2C1)CCC3
inactive: A498 49.4 µM | ACHN 38.7 µM | BT-549 25.2 µM | CAKI-1 39.5 µM | HT-29 18.4 µM | Malme-3M 29.6 µM | NCI-H226 25.2 µM | NCI-H522 30.3 µM | OVCAR-3 41.1 µM | OVCAR-4 35.7 µM | OVCAR-8 47.3 µM | SF-539 39 µM | SK-MEL-28 38.8 µM | SK-OV-3 35 µM | SNB-75 > 10 µM | U-251 30.8 µM

Nn1c(Cc2ccccc2)n[nH]c1=O
inactive: A498 > 100 µM | ACHN > 100 µM | BT-549 > 100 µM | CAKI-1 > 100 µM | HT-29 > 100 µM | Malme-3M 37.2 µM | NCI-H226 > 100 µM | NCI-H522 > 100 µM | OVCAR-3 > 100 µM | OVCAR-4 > 100 µM | OVCAR-8 > 100 µM | SF-539 > 100 µM | SK-MEL-28 > 100 µM | SK-MEL-5 > 100 µM | SK-OV-3 > 100 µM | SNB-75 > 100 µM | U-251 > 100 µM

CC1=CC(=O)/C(=C/NC(=S)NCCc2ccccc2)C(=O)O1
inactive: ACHN > 100 µM | BT-549 53.7 µM | CAKI-1 > 100 µM | HOP-92 > 100 µM | HT-29 > 100 µM | NCI-H226 > 100 µM | OVCAR-3 > 100 µM | OVCAR-4 > 100 µM | OVCAR-8 > 100 µM | SF-539 > 100 µM | SK-MEL-28 > 100 µM | SK-MEL-5 > 100 µM | SK-OV-3 > 100 µM | SNB-75 75 µM | U-251 > 100 µM
